# Experimental data from ChEMBL document CHEMBL1136933 (J Med Chem, 2009).
# Key:
# Format in all cases: functional, cell-based
# [1] = target: T1, Muscarinic acetylcholine receptor M5 (Homo sapiens) (UniProt P08912); assay: Activation of human muscarinic M5 receptor expressed in CHO cells coexpressing Gq protein assessed as potentiation of acetylcholine-induced intracellular Ca2+ mobilization at 30 uM relative to acetylcholine
# T1 sequence (whole entry): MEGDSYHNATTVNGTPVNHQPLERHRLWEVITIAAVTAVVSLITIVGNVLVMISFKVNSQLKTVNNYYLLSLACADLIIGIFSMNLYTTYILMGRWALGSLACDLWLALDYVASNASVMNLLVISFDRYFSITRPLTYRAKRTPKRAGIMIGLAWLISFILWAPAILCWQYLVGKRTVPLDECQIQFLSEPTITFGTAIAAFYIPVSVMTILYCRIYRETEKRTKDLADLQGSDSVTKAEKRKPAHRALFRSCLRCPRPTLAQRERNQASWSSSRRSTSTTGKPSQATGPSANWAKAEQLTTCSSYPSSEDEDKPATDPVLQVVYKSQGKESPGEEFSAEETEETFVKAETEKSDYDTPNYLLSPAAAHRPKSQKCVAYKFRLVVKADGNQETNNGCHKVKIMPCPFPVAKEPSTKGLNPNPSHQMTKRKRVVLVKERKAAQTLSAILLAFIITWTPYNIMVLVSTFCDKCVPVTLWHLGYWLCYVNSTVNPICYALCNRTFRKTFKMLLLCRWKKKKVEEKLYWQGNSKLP
# [2] = target: T2, Muscarinic acetylcholine receptor M1 (Rattus norvegicus) (UniProt P08482); assay: Activation of rat muscarinic M1 receptor expressed in CHO cells co-expressing Gq protein assessed as potentiation of acetylcholine-induced intracellular Ca2+ mobilization at 30 uM relative to acetylcholine
# T2 sequence (whole entry): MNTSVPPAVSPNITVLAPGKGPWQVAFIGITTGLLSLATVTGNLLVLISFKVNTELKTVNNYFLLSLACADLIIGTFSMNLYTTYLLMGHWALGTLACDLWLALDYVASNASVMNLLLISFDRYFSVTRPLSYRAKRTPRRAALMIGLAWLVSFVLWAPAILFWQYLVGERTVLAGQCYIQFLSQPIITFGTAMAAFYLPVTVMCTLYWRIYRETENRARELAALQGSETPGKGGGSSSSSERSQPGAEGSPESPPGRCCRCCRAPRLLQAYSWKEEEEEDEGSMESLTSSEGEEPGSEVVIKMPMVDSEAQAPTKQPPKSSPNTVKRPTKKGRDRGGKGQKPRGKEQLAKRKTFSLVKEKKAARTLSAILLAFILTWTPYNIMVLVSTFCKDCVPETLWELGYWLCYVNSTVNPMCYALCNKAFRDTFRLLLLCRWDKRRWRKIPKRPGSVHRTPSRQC
# [3] = target: T3, Muscarinic acetylcholine receptor M5 (Homo sapiens, UniProt P08912); assay: Activation of human muscarinic M5 receptor expressed in CHO cells coexpressing Gq protein assessed as potentiation of acetylcholine-induced intracellular Ca2+ mobilization
# T3 sequence (P08912 whole entry): T1 sequence (whole entry)
Compound,%max [1],%max [2],EC50 [3]
Cc1ccc2c(c1)C(=O)C(=O)N2Cc1ccc(Br)cc1F,27.8%,22.3%,
O=C1C(=O)N(Cc2ccc(F)cc2F)c2ccc(Cl)cc21,44.9%,32.4%,
O=C1C(=O)N(Cc2ccc(Br)cc2F)c2c(F)cccc21,46.3%,39.2%,
O=C1C(=O)N(Cc2ccc(F)cc2F)c2ccccc21,40.4%,44.8%,
O=C1C(=O)N(Cc2ccc(OC(F)(F)F)cc2)c2ccc(F)cc21,58.4%,59.8%,
Cc1ccccc1CN1C(=O)C(=O)c2cccc(F)c21,27.5%,30.2%,
O=C1C(=O)N(Cc2ccccc2Cl)c2c(Cl)ccc(Cl)c21,18.9%,13.1%,
O=C1C(=O)N(Cc2c(F)cccc2F)c2ccc(OC(F)(F)F)cc21,29.8%,13.6%,
Cc1ccc2c(c1)C(=O)C(=O)N2Cc1ccccc1Cl,24.3%,16.8%,
O=C1C(=O)N(Cc2ccc(C(F)(F)F)cc2)c2ccc(Cl)cc21,67.4%,44.1%,
O=C1C(=O)N(Cc2c(F)cccc2F)c2ccc(F)cc21,31.1%,27.6%,
O=C1C(=O)N(Cc2c(F)cccc2F)c2ccccc21,17.4%,36.6%,
O=C1C(=O)N(Cc2ccccc2C(F)(F)F)c2ccc(Cl)cc21,48.4%,29.6%,
Cc1ccc2c(c1)C(=O)C(=O)N2Cc1ccc(C(F)(F)F)cc1,35.5%,22.9%,
COc1ccc(CN2C(=O)C(=O)c3cc(F)ccc32)cc1,38.3%,41.1%,
Cc1ccccc1CN1C(=O)C(=O)c2ccccc21,36.3%,43.2%,
O=C1C(=O)N(Cc2ccc(Br)cc2)c2ccc(Cl)cc21,32%,26.1%,
O=C1C(=O)N(Cc2ccc(Br)cc2F)c2c(Cl)ccc(Cl)c21,12.4%,9.93%,
O=C1C(=O)N(Cc2ccc(OC(F)(F)F)cc2)c2c(Cl)cccc21,72.3%,43.6%,
O=C1C(=O)N(Cc2ccccc2F)c2ccccc21,24.5%,38.9%,
COc1cccc(CN2C(=O)C(=O)c3cccc(F)c32)c1,52%,51.1%,
O=C1C(=O)N(Cc2ccc(F)cc2F)c2c(Cl)ccc(Cl)c21,19.1%,17.2%,
O=C1C(=O)N(Cc2ccccc2F)c2c(Cl)cccc21,49.5%,50.4%,
Cc1ccc2c(c1)C(=O)C(=O)N2Cc1ccc(OC(F)(F)F)cc1,18.9%,13.8%,
Cc1ccc2c(c1)C(=O)C(=O)N2Cc1ccccc1C,29.9%,20.2%,
O=C1C(=O)N(Cc2ccc(F)cc2F)c2c(F)cccc21,68.9%,64.4%,

Compound,%max [1],%max [2],EC50 [3]
O=C1C(=O)N(Cc2ccccc2Cl)c2ccc(F)cc21,39.9%,41.4%,
Cc1cccc2c1N(Cc1ccccc1F)C(=O)C2=O,24.6%,24.9%,
O=C1C(=O)N(Cc2ccccc2C(F)(F)F)c2ccc(OC(F)(F)F)cc21,56.5%,22.6%,
O=C1C(=O)N(Cc2ccccc2Cl)c2ccccc21,42%,43.4%,
O=C1C(=O)N(Cc2c(F)cccc2F)c2c(Cl)cccc21,23.6%,38.8%,
O=C1C(=O)N(Cc2ccccc2Cl)c2c(F)cccc21,20.3%,18.5%,
COc1ccc(CN2C(=O)C(=O)c3cccc(F)c32)cc1,44.4%,54.6%,
Cc1ccc2c(c1)C(=O)C(=O)N2Cc1ccc(Br)cc1,24.1%,19%,
COc1ccc(CN2C(=O)C(=O)c3cc(C)ccc32)cc1,21.2%,14.1%,
COc1cccc(CN2C(=O)C(=O)c3cccc(Cl)c32)c1,38.7%,46.9%,
Cc1cccc2c1N(Cc1c(F)cccc1F)C(=O)C2=O,14.4%,17.3%,
O=C1C(=O)N(Cc2ccccc2F)c2ccc(OC(F)(F)F)cc21,51.8%,11.3%,
COc1ccc(CN2C(=O)C(=O)c3c(Cl)ccc(Cl)c32)cc1,11.7%,18.6%,
COc1cccc(CN2C(=O)C(=O)c3ccccc32)c1,28%,19.4%,
Cc1ccccc1CN1C(=O)C(=O)c2cc(F)ccc21,40.8%,37.7%,
O=C1C(=O)N(Cc2ccc(Br)cc2F)c2ccc(Cl)cc21,30.4%,29.9%,
O=C1C(=O)N(Cc2ccccc2F)c2ccc(F)cc21,46.2%,40.1%,
O=C1C(=O)N(Cc2ccc(Br)cc2F)c2c(Cl)cccc21,,,4.66 µM
COc1ccc(CN2C(=O)C(=O)c3cc(Cl)ccc32)cc1,32.6%,20.3%,
O=C1C(=O)N(Cc2ccccc2Cl)c2ccc(Cl)cc21,44.4%,21.3%,
O=C1C(=O)N(Cc2ccccc2C(F)(F)F)c2c(Cl)cccc21,14%,31.1%,
Cc1ccccc1CN1C(=O)C(=O)c2cccc(Cl)c21,32.6%,32.8%,
O=C1C(=O)N(Cc2ccc(C(F)(F)F)cc2)c2ccccc21,,,3.19 µM
O=C1C(=O)N(Cc2ccccc2F)c2c(F)cccc21,42.4%,42.7%,
O=C1C(=O)N(Cc2ccccc2F)c2c(Cl)ccc(Cl)c21,14.7%,12.4%,
O=C1C(=O)N(Cc2ccc(Br)cc2F)c2ccccc21,48.5%,49.2%,

Compound,%max [1],%max [2],EC50 [3]
COc1cccc(CN2C(=O)C(=O)c3cc(F)ccc32)c1,41.6%,32.3%,
O=C1C(=O)N(Cc2ccc(F)cc2F)c2ccc(F)cc21,60.3%,47.3%,
Cc1ccccc1CN1C(=O)C(=O)c2c(Cl)ccc(Cl)c21,16.4%,13.7%,
Cc1ccccc1CN1C(=O)C(=O)c2cc(Cl)ccc21,47.3%,27.6%,
O=C1C(=O)N(Cc2ccc(Br)cc2)c2c(Cl)cccc21,44.3%,29.9%,
O=C1C(=O)N(Cc2ccccc2F)c2ccc(Cl)cc21,36.3%,23%,
O=C1C(=O)N(Cc2ccc(Br)cc2)c2c(Cl)ccc(Cl)c21,20.7%,12.1%,
O=C1C(=O)N(Cc2ccc(OC(F)(F)F)cc2)c2c(Cl)ccc(Cl)c21,23.2%,16%,
O=C1C(=O)N(Cc2ccccc2C(F)(F)F)c2c(Cl)ccc(Cl)c21,16%,21.1%,
Cc1ccc2c(c1)C(=O)C(=O)N2Cc1ccccc1C(F)(F)F,30.6%,17.8%,
COc1cccc(CN2C(=O)C(=O)c3cc(C)ccc32)c1,29.6%,14.5%,
O=C1C(=O)N(Cc2ccccc2C(F)(F)F)c2ccccc21,40.2%,37.9%,
O=C1C(=O)N(Cc2c(F)cccc2F)c2c(F)cccc21,25.1%,33.1%,
O=C1C(=O)N(Cc2ccc(OC(F)(F)F)cc2)c2c(F)cccc21,57.7%,51.8%,
O=C1C(=O)N(Cc2ccc(F)cc2F)c2ccc(OC(F)(F)F)cc21,61.9%,25.9%,
Cc1cccc2c1N(Cc1ccc(F)cc1F)C(=O)C2=O,33.8%,32.6%,
O=C1C(=O)N(Cc2ccc(OC(F)(F)F)cc2)c2ccccc21,60.5%,54.7%,
O=C1C(=O)N(Cc2ccc(OC(F)(F)F)cc2)c2ccc(Cl)cc21,47.1%,31.3%,
O=C1C(=O)N(Cc2ccc(Br)cc2F)c2ccc(F)cc21,64%,70.5%,
O=C1C(=O)N(Cc2ccc(F)cc2F)c2c(Cl)cccc21,61.6%,64.6%,
COc1cccc(CN2C(=O)C(=O)c3cc(Cl)ccc32)c1,27.9%,16.9%,
O=C1C(=O)N(Cc2c(F)cccc2F)c2ccc(Cl)cc21,31.8%,27.3%,
O=C1C(=O)N(Cc2ccc(Br)cc2)c2ccc(OC(F)(F)F)cc21,47.6%,13.2%,
O=C1C(=O)N(Cc2c(F)cccc2F)c2c(Cl)ccc(Cl)c21,12.2%,16.4%,
